# In PubChem BioAssay (NCI):
#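 Cultured in 96-well plates, cells were exposed to test compound for 48 hours across five concentrations. TGI: total growth inhibition.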
# Tests used:
# Assay in all cases: DTP human tumour cell line panel, 48 h
# 786-0 renal = system: 786-0 renal
# CCRF-CEM leukemia = system: CCRF-CEM leukemia
# EKVX NSCLC = system: EKVX NSCLC
# HCC-2998 colon = system: HCC-2998 colon
# HCT-15 colon = system: HCT-15 colon
# HL-60(TB) leukemia = system: HL-60(TB) leukemia
# K-562 leukemia = system: K-562 leukemia
# LOX IMVI melanoma = system: LOX IMVI melanoma
# NCI-H460 lung = system: NCI-H460 lung
# NCI-H522 lung = system: NCI-H522 lung
# NCI/ADR-RES ovarian = system: NCI/ADR-RES ovarian
# OVCAR-5 ovarian = system: OVCAR-5 ovarian
# OVCAR-8 ovarian = system: OVCAR-8 ovarian
# SF-268 CNS = system: SF-268 CNS
# SF-295 CNS = system: SF-295 CNS
# SF-539 CNS = system: SF-539 CNS
# SK-MEL-2 melanoma = system: SK-MEL-2 melanoma
# SK-MEL-5 melanoma = system: SK-MEL-5 melanoma
# SNB-19 CNS = system: SNB-19 CNS
Structure (SMILES),TGI (786-0 renal) [µM],TGI (CCRF-CEM leukemia) [µM],TGI (EKVX NSCLC) [µM],TGI (HCC-2998 colon) [µM],TGI (HCT-15 colon) [µM],TGI (HL-60(TB) leukemia) [µM],TGI (K-562 leukemia) [µM],TGI (LOX IMVI melanoma) [µM],TGI (NCI-H460 lung) [µM],TGI (NCI-H522 lung) [µM],TGI (NCI/ADR-RES ovarian) [µM],TGI (OVCAR-5 ovarian) [µM],TGI (OVCAR-8 ovarian) [µM],TGI (SF-268 CNS) [µM],TGI (SF-295 CNS) [µM],TGI (SF-539 CNS) [µM],TGI (SK-MEL-2 melanoma) [µM],TGI (SK-MEL-5 melanoma) [µM],TGI (SNB-19 CNS) [µM]
Cc1nnc2sc(-c3ccc(-c4ccccc4Cl)o3)nn12,80.1,> 100,> 100,64.4,86,63.3,56.8,53.2,> 100,78.4,52.8,> 100,53.1,> 100,> 100,45.9,86.7,61.3,> 100
COc1ccc(C2NC3=C(CCCC3)C3(C#N)C(=O)N=C(N)C23C#N)cc1 (stereo unspecified),> 100,91.9,> 100,> 100,> 100,> 100,> 100,> 100,> 100,> 100,> 100,> 100,> 100,> 100,> 100,,> 100,> 100,> 100
N=c1oc2ccc(Cl)cc2cc1C(=O)Nc1ccccc1,> 100,> 100,> 100,> 100,> 100,> 100,> 100,> 100,> 100,> 100,> 100,> 100,> 100,> 100,> 100,> 100,> 100,> 100,> 100
CN1C(=O)C(O)CC1c1cccc(F)c1 (stereo unspecified),> 100,> 100,> 100,> 100,> 100,> 100,> 100,> 100,> 100,> 100,> 100,> 100,> 100,,> 100,> 100,> 100,> 100,> 100
NC1=Nc2ccccc2Sc2nnc(-c3ccc(Cl)cc3)n21,82.6,56.2,> 100,> 100,> 100,> 100,35.7,> 100,> 100,68.3,> 100,> 100,> 100,95.3,> 100,> 100,> 100,> 100,> 100
CSCC[C@H]1C(=O)N=C(N)N1C(=O)OCc1ccccc1,> 100,,> 100,> 100,> 100,44.8,71.9,> 100,> 100,46.5,> 100,> 100,> 100,> 100,> 100,,> 100,> 100,> 100
Cc1ccc(C(=O)C#Cc2cn(C3CC(O)C(CO)O3)c(=O)[nH]c2=O)cc1 (stereo unspecified),> 100,,> 100,> 100,> 100,,,> 100,> 100,23.9,> 100,,> 100,> 100,> 100,> 100,> 100,> 100,> 100
c1ccc2c(c1)CCN2CCc1c[nH]c2ccccc12,> 10,> 10,> 10,> 10,> 10,> 10,> 10,> 10,> 10,> 10,> 10,> 10,> 10,> 10,> 10,> 10,> 10,> 10,> 10
COc1ccc(/C=C(\NC(=O)c2ccccc2)C(=O)NN(C)c2ccnc3cc(Cl)ccc23)cc1OC,79.2,,> 100,,55.4,,51.2,35.1,39.3,44.1,43.8,> 100,46.8,35.4,97.1,46.5,46,88.3,> 100
Cc1ccc(-n2cnc3c(N/N=C4\SCC(=O)N4c4ccccc4)ncnc32)cc1,12.1,4.93,29,,11.5,4.29,> 100,10.3,13.2,7.28,53.8,25.4,11.8,19.7,27.6,3.71,8.42,16,24.4
COC(=O)c1cc(-c2c[nH]cc2C(=O)OCc2ccccc2)cn1S(=O)(=O)c1ccc(C)cc1,> 100,> 100,> 100,> 100,> 100,,> 100,> 100,> 100,> 100,> 100,> 100,> 100,> 100,> 100,> 100,> 100,> 100,> 100
CC1=CCS(=O)(=O)C1C(O)C1=C(C)CCCC1(C)C (stereo unspecified),> 100,> 100,> 100,> 100,> 100,> 100,> 100,> 100,,> 100,> 100,> 100,> 100,,> 100,> 100,> 100,> 100,> 100
COc1cc(/C=C/C2=NN(c3cccc(S(=O)(=O)O)c3)C3(C2)C(Cl)C(=O)N3c2nc3ccccc3s2)ccc1O (stereo unspecified),32.2,42.2,42.3,38.2,37.4,42.5,61.9,27.5,> 100,30.4,99.4,37.9,40.8,50.5,,46,> 100,85.2,> 100
